# From patent US8609417B2, “Methods and compositions for stem cell cultures” (The Regents of the University of California, priority 2009, dated 2013)
# Experiments:
# Format in all cases: cell-based, human
# hiPS cells [1] = assay: TUNEL assay (apoptosis)
# Experimental: The samples in triplicates used for cell viability assay were immediately tested by TUNEL assay by using APO-DIRECT kit (BD Pharmingen) according to the manufacturer's protocol. The number of TUNEL (FITC) or propidium iodide (PI)-positive cells was counted by hemocytometer under fluorescent microscopy with 20× objective. When necessary, FITC-labeled cells were verified by using 40× objective to exclude non-specific signal. At least 300 cells were evaluated per each sample and counting was repeated for 2 times. The ratio of the number of TUNEL-positive cells to the number of PI-positive cells was calculated. The representative result was shown in the figure from experiments repeated for at least 3 times. Although flow cytometric analysis was initially attempted, due to persistent cell aggregations from suspension culture experiments even after extensive trypsinization and trituration, we decided to switch to manual cell counting which well correlated with the data obtained from cell viability assay.
# cleaved caspase-3 = assay: Western analysis of cleaved caspase-3; details: hiPS cells under adherence condition
# Experimental: Total protein was extracted with RIPA buffer (20 mM Tris-HCl, pH 7.5, 150 mM NaCl, 1 mM Na2EDTA, 1 mM EGTA, 1% NP-40, 1% sodium deoxycholate, 2.5 mM sodium pyrophosphate, 1 mM β-glycerophosphate, 1 mM Na3VO4, and protease inhibitors). Protein concentrations were determined by BCA Protein Assay kit (Pierce). An equal amount (20 μg) of protein was loaded in each lane, separated by 10% SDS/PAGE, and transferred onto a PVDF membrane (BioRad). The membrane was blocked in Odyssey blocking buffer (LI-COR Biotechnology), and subsequently incubated with primary antibodies against Oct3 (Santa Cruz Biotechnology), Nanog (Millipore), myosin IIA (Covance), myosin IIB (Covance), cleaved caspase-3 (Cell Signaling), or β-actin (Sigma) at 4° C. overnight followed by incubation with peroxidase-conjugated goat anti-mouse IgG or goat anti-rabbit IgG (Jackson ImmunoResearch, Inc.), and developed with ECL reagent (GE Healthcare).
# hiPS cells [2] = assay: Cell viability under suspension culture; details: 2 days
# Experimental: For the evaluation of cell viability under suspension culture, hES or hiPS cells were plated at 5×10^5 in non-tissue culture-treated 6-well plates with non-conditioned standard hESm containing blebbistatin or Y-27632 at different concentrations in triplicates. After 2 days, cells were harvested with trypsinization and extensive trituration by pipetting, and the number of live cells was manually counted by using hemocytometer and trypan blue staining. The cell survival ratio (%) represents the ratio of the number of live cells to the number of cells plated. The same samples were subjected to TUNEL assay for side by side comparison with the data from cell viability assay.
# hiPS cells [3] = assay: Cell growth assay (population doubling time); details: hiPS cells on PDL in mTeSR, compound at 5 μM
# Experimental: For the cell growth assay, hiPS or hES cells were plated at 2.5×10^4 cells/cm^2 on plates coated with PDL or Matrigel in mTeSR in the presence of blebbistatin at 5 μM or Y-27632 at 5 μM (PDL) or in the absence of compounds (Matrigel). Cells were harvested at the indicated time points, stained with trypan blue, and counted by the hemocytometer.
# hiPS cells [4] = assay: Attachment of hiPS cells on poly-D-lysine (PDL) in mTeSR; details: no signs of defects in cell-cell adhesions
# Text: Myosin II controls cell-matrix contacts and detachment-induced apoptosis in hiPS and hiES cells. […] Similar results were obtained from the experiments using hES cells.
# hES cells = assay: Cell-cell contact of hES cells (morphology, cell contact index); details: hES cells, 10 μM
# Experimental: Rock and myosin II regulate cell-cell interactions in hES cells. To test whether the observed function of RRM signaling in cell-cell contacts in mES cells is conserved in hES cells, H1 cells grown under the feeder-free condition with Matrigel™ and conditioned medium (CM) (FIG. 3A) were treated with C3 exoenzyme. […] Rock-inhibitor treatment also led to cell adhesion defects although it required a higher concentration (20 μM) than that (10 μM) for mES cells (FIG. 3C). Myosin IIA and IIB were colocalized with cell-cell borders in hES cells, which indicates their potential role in cell-cell adhesions (FIG. 3D).
# Oct3/4 and Nanog = Oct3/4 and Nanog expression by QPCR, Western analysis and immunocytochemistry; details: hES cells in mTeSR or hESm, different concentrations, 48 h
# Experimental: For immunocytochemistry, cells grown on culture vessels were fixed in 4% paraformaldehyde (USB Corporation). After washing with PBS/BSA, the samples were incubated with primary antibodies recognizing the target proteins at 4° C. overnight. The primary antibodies used in the study include Oct3 (BD Biosciences), myosin IIA (Covance), and myosin IIB (Covance). The samples were washed for three times, and incubated with appropriate secondary antibodies conjugated with Alexa Fluorophore (Invitrogen) at room temperature for 30 min. […]
# QPCR. […] The extracted RNA sample was quantified by UV spectrophotometer, and qualified by the RNA Nano Lab chip (Agilent Technologies). […] Each cycle threshold (CT) value was determined by iQ5 optical system software (BioRad), and normalized by the β-actin expression level. […]
# Total protein was extracted with RIPA buffer (20 mM Tris-HCl, pH 7.5, 150 mM NaCl, 1 mM Na2EDTA, 1 mM EGTA, 1% NP-40, 1% sodium deoxycholate, 2.5 mM sodium pyrophosphate, 1 mM β-glycerophosphate, 1 mM Na3VO4, and protease inhibitors). Protein concentrations were determined by BCA Protein Assay kit (Pierce). […]
structure (smiles),measurement,setting,value
"Cc1ccc2c(c1)C(=O)C1(O)CCN(c3ccccc3)C1=N2 (stereo not drawn) [blebbistatin, 1-Phenyl-1,2,3,4-tetrahydro-4-hydroxypyrrolo[2,3-b]-7-methylquinolin-4-one]",Level of apoptosis (TUNEL and cleaved caspase-3 assays),hiPS cells [1]; hPS cells in suspension culture,significantly lower levels of apoptosis
same,TUNEL-positive cells,"hiPS cells [1]; hiPS cells under adherence condition, 24 h, n=3 (control 73±2.5%)",11±3.8%
same,Cleaved caspase-3 level by Western analysis,cleaved caspase-3,decreased
same,Effect on survival in suspension culture,"hiPS cells [2]; hPS cells in suspension, various concentrations",higher viability than Y-27632
same,Number of live cells,"hiPS cells [2]; hiPS cells in suspension culture, 10 μM, n=3",1.6±0.12×10^5 cells
same,Population doubling time,hiPS cells [3],approximately 32.1 h
same,Minimum concentration supporting attachment of hiPS cells on PDL,hiPS cells [4],2 µM
same,Effect on cell-cell connections,hES cells,disrupted cell-cell connections
same,Oct3/4 and Nanog expression,Oct3/4 and Nanog,elevated levels of both transcription factors in a dose dependent manner
